Data: patent EP0480690A1, “Aqueous ophthalmic microemulsions of tepoxalin” (CIBA-GEIGY AG, priority 1990, dated 1992)

What was measured:
rabbit cornea = assay: In vitro corneal penetration in modified Ussing chambers; type: in vitro ADME; settings: 0.1% suspension and 0.1% microemulsion, 0 to 240 minutes
Procedure: Modified Ussing type chambers (H.F. Edelhauser, J.R. Hoffert, P.O. Fromm, Invest. Ophthalmol. Vis. Sci., 4:290-296 (1965)) designed with 2.5 ml donor and 2.5 ml receiver cells (separated by the cornea which is mounted between two sealing rings) are used for the studies to determine penetration of the cornea by the microemulsions of the invention. The system is 2-chambered (in vitro cells) (see Figure 1) and is designed to monitor the penetration of drug entities across biological membranes. Usually the cells are temperature controlled by means of an exterior water jacket; the stirring of the dosing and receiving solutions in the cells is achieved by bubbling a gas through the cells. In the case of the cornea, the gas is a mixture of 5% CO₂ balanced with oxygen, to maintain physiological Ph.
The eyes were enucleated with the conjunctival sac and lids attached. The cornea was excised and mounted using the Dikstein and Maurice Technique (S. Dikstein and D.M. Maurice, J. Physiol., 221: 29-41 (1972)). […]
100 µl Aliquots were sampled from the receiver side over a 4-hour period (0, 15, 30, 45, 60, 90, 120, 180 and 240 minutes). […] The mounted corneas were removed from the cells and the percentage hydration calculated by weighing the isolated tissue before and after drying (the corneas were placed in an oven overnight at 45°C). […] Untreated corneas were assessed as controls. […]

[1] = Solubility studies on tepoxalin in various vehicles; type: physicochemical
Description: The low aqueous solubility of tepoxalin prompted solubility experiments with oils, surfactants, hydroxypropyl-beta-cyclodextrin, and combinations thereof. These experiments are summarized above in Table 1. A tepoxalin content of greater than 0.1% could be attained with a microemulsion using 1% castor oil and 2% of a Tween (polysorbate). […] The sequence of adding, mixing, and sonicating the drug and excipients is important in attaining a concentration greater than 0.1%.
Thus, 0.134% of the 0.15% drug in the emulsion resides in the interface.

[2] = Accelerated degradation of tepoxalin (16 hours at 100°C, HPLC); type: physicochemical
Procedure: The results of the first stability study prompted an investigation for a way to reformulate. Tepoxalin appears to hydrolyze at the amide group to form a carboxylic acid. An accelerated procedure has been developed to observe this degradation within 16 hours. The sample is analyzed by reversed-phase HPLC using a diode array for detection. […] With disodium Edetate in the microemulsion, the drug degraded at and above pH 7.0; degradation was minimal at pH's 5.0, 5.5 and 6.0. Thus, a second stability study was begun with 0.03% disodium Edetate in the formulation and the pH adjusted to 5.9 - 6.1 with a citric acid/sodium phosphate dibasic buffer.
A number of experiments were performed in succession in order to elucidate a mechanism for the degradation of tepoxalin in water and in the microemulsion and to determine optimum conditions for the tepoxalin microemulsion. The drug is suspected of vulnerability to acid and base catalysis of its […] amide group forming a carboxylic acid. The experiments and results: • (a) 0.1% tepoxalin was dissolved in 50:50 water: ethanol and aliquots were pH adjusted with 1M NaOH to 5.0, 6.0, 7.0, 8.0 and 12.6. The aliquots were heated in capped reaction vials for 16 hours at 100°C.
Two drops of 1M citric acid solution were added to an aliquot (1 ml) and the pH was adjusted with 1.0 M sodium phosphate dibasic to pH 5.0, 6.0, 7.0, and 7.6. The samples were heated as before.
The chromatograms show two major degradation products: one eluting before tepoxalin and another after.
The optimum pH appears between pH 6.2 and 6.4, but there is still significant degradation. • (d) The previous experiment (c) was repeated with disodium Edetate 0.03% in each sample and with the same pH range.
The presence of the second degradate that elutes before tepoxalin is also minimal. • (e) Experiment (d) was repeated with a broader pH range: 5.0, 5.5, 6.0, and 7.0.

COc1ccc(-n2nc(CCC(=O)N(C)O)cc2-c2ccc(Cl)cc2)cc1 [Tepoxalin, 3-[5-(4-chlorophenyl)-1-(4-methoxyphenyl)-3-pyrazolyl]-N-hydroxy-N-methylpropanamide]
penetration of tepoxalin across the cornea (rabbit cornea): penetrating the cornea from both formulations | Tepoxalin Solubility ([1]; Matrix: Water, Neat): 0.00044% | Tepoxalin Solubility ([1]; Oil, Surfactant Microemulsion: castor oil 1%, Tween 60 2%): 0.15% | Tepoxalin Solubility ([1]; Oil, Surfactant Microemulsion: castor oil 1%, Tween 80 2% (tepoxalin is added after microemulsion)): 0.085% | Tepoxalin Solubility ([1]; Oil, Surfactant Microemulsion: castor oil 1%, Tween 80 2% (tepoxalin is added before emulsion is prepared)): 0.147% | Tepoxalin Solubility ([1]; Oil, Surfactant Microemulsion: castor oil 2%, Tween 80 2%): 0.106% | Tepoxalin Solubility ([1]; Oil, Surfactant Microemulsion: castor oil 3%, Pluronic P-105 7%): 0.108% | Tepoxalin Solubility ([1]; Oils: Cottonseed, Neat): 0.06% | Tepoxalin Solubility ([1]; Oils: castor, Neat): 1.6% | Tepoxalin Solubility ([1]; Oils: mineral, Neat): 0.0% | Tepoxalin Solubility ([1]; Oils: perfluoro-decalin, Neat): 0.0% | Tepoxalin Solubility ([1]; Oils: sesame, Neat): 0.4% | Tepoxalin Solubility ([1]; Oils: sunflower Seed, Neat): 0.4% | Tepoxalin Solubility ([1]; Surfactant and HP-β-CD Solution: HP-β-CD 5%, Tween 80 2%): 0.097% | Tepoxalin Solubility ([1]; Surfactant and HP-β-CD Solution: HP-β-CD 10%, Tween 80 1%): 0.113% | Tepoxalin Solubility ([1]; Surfactants: Pluronic F-127, aqueous 6%): 0.035% | Tepoxalin Solubility ([1]; Surfactants: Pluronic P-105, aqueous 6% w/w): 0.099% | Tepoxalin Solubility ([1]; Surfactants: Tween 20, aqueous 2%): 0.053% | Tepoxalin Solubility ([1]; Surfactants: Tween 40, aqueous 2%): 0.066% | Tepoxalin Solubility ([1]; Surfactants: Tween 60, aqueous 2%): 0.079% | Tepoxalin Solubility ([1]; Surfactants: Tween 80, aqueous 1%): 0.030% | Tepoxalin Solubility ([1]; Surfactants: Tween 80, aqueous 2%): 0.089% | Tepoxalin Solubility ([1]; Surfactants: Tween 80, aqueous 3%): 0.099% | Tepoxalin Solubility ([1]; Surfactants: Tween 80, aqueous 6%): 0.120% | Maximum tepoxalin solubility for castor oil ([1]; castor oil): 1.6% | tepoxalin content ([1]; microemulsion using 1% castor oil and 2% of a Tween (polysorbate)): greater than 0.1% | drug in the emulsion that resides in the interface ([1]; of the 0.15% drug in the emulsion, 1% castor oil dispersed): 0.134% | degradation of tepoxalin ([2]; 0.1% microemulsion (castor oil, Tween 60, citrate/phosphate buffer), pH 5.0, 6.0, 7.0, 7.6, no Edetate, 16 hours at 100°C): The degradation occurs greatest at pH 5.0 and 7.6 | degradation of tepoxalin ([2]; 0.1% tepoxalin in 50:50 water:ethanol, pH 5.0, 6.0, 7.0, 8.0, 12.6, 16 hours at 100°C): a degradation peak eluting after tepoxalin in samples at pH 6, 7, 8, 12.6 but not at pH 5.0 | pH of optimum stability ([2]; microemulsion with disodium Edetate 0.03%, from tepoxalin peak areas and heights): optimum stability between 5.5 and 6.0 | degradation of tepoxalin ([2]; microemulsion with disodium Edetate 0.03%, pH 5.0, 5.5, 6.0 and 7.0): Degradation was minimal at pH 5.0, 5.5, and 6.0 | degradation of tepoxalin ([2]; microemulsion with disodium Edetate 0.03%, pH 6.0 to 7.0): Degradation is minimal at pH 6.0 and increases with pH to 7.0 | pH of minimum degradation ([2]; microemulsion without Edetate, pH range 5 to 7.6): 6.2 - 6.4
